BindingDB's records for PubMed 11714872 (Astrazeneca R&D, 2001)

Tests used:
[1] = target: 5-hydroxytryptamine receptor 2A (Rattus norvegicus, UniProt P14842)
[2] = target: 5-hydroxytryptamine receptor 7 (Rattus norvegicus, UniProt P32305)
[3] = target: Sodium-dependent serotonin transporter (Rattus norvegicus, UniProt P31652)
[4] = target: T1, 5-hydroxytryptamine receptor 2C (Rattus norvegicus, UniProt P08909)
T1 sequence (P08909 whole entry): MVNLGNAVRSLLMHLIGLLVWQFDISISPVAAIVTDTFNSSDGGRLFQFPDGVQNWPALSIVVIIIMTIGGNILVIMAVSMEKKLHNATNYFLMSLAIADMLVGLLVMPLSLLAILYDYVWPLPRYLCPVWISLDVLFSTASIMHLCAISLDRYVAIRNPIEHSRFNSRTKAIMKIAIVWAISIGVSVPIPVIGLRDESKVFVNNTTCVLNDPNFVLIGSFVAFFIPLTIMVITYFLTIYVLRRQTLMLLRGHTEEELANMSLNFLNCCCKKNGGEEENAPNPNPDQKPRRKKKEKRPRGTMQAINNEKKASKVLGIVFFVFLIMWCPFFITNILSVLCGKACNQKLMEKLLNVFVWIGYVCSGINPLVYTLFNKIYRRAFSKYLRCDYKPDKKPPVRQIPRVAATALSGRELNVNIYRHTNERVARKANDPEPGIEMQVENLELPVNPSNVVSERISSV

[5] = target: T2, 5-hydroxytryptamine receptor 3A (Rattus norvegicus, UniProt P35563)
T2 sequence (P35563 whole entry): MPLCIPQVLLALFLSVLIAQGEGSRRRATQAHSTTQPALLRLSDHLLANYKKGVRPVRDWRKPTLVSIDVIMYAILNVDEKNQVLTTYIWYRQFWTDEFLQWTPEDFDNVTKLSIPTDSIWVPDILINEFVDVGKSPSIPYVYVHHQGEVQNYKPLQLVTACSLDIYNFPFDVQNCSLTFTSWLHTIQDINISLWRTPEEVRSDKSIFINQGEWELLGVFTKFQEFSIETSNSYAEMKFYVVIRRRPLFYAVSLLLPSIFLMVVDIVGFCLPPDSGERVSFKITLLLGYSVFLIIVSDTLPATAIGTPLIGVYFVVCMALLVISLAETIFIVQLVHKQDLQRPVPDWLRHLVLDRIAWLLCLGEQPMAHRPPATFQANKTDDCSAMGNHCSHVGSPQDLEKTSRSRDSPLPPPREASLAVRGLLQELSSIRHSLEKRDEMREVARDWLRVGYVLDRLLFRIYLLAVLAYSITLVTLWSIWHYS

[6] = target: T3, 5-hydroxytryptamine receptor 1A (Rattus norvegicus, UniProt P19327)
T3 sequence (P19327 whole entry): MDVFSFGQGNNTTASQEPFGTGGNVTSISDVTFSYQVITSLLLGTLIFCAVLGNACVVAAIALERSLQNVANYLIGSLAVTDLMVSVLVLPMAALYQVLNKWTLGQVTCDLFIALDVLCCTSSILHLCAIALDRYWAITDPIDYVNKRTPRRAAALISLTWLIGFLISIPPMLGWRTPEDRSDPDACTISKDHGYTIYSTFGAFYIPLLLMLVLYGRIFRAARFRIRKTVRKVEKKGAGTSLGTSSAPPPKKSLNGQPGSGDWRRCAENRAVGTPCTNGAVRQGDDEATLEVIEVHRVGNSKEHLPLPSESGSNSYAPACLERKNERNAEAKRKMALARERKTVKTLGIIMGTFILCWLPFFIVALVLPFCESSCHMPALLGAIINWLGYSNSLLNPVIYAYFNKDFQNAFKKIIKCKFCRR

[7] = target: 5-hydroxytryptamine receptor 6 (Rattus norvegicus, UniProt P31388)
[8] = target: 5-hydroxytryptamine receptor 1B (Bos mutus, UniProt L8IGV0)
Sequence of 5-hydroxytryptamine receptor 1B (L8IGV0 whole entry): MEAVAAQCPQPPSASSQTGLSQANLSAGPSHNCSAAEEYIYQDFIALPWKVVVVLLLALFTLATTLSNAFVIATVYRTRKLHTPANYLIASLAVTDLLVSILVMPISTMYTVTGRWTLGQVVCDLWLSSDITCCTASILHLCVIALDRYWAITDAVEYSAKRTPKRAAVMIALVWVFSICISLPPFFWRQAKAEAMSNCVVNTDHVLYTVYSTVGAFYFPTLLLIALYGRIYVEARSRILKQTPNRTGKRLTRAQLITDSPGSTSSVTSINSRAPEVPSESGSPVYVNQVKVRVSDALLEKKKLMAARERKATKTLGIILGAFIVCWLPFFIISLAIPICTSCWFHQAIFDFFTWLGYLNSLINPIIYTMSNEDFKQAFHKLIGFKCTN

Sequence of 5-hydroxytryptamine receptor 2A (P14842 whole entry): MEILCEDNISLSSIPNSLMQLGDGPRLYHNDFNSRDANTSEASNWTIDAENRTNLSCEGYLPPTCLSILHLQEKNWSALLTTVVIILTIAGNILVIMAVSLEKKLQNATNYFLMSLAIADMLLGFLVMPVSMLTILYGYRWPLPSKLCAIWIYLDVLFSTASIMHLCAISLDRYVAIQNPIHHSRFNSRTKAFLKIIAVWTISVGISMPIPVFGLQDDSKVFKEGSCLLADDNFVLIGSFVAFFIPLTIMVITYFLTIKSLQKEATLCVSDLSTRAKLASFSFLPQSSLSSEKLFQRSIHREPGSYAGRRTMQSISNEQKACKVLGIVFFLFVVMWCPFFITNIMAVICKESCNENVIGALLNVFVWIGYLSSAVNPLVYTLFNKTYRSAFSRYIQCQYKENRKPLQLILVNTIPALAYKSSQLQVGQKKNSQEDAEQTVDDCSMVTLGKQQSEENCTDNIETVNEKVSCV
Sequence of 5-hydroxytryptamine receptor 7 (P32305 whole entry): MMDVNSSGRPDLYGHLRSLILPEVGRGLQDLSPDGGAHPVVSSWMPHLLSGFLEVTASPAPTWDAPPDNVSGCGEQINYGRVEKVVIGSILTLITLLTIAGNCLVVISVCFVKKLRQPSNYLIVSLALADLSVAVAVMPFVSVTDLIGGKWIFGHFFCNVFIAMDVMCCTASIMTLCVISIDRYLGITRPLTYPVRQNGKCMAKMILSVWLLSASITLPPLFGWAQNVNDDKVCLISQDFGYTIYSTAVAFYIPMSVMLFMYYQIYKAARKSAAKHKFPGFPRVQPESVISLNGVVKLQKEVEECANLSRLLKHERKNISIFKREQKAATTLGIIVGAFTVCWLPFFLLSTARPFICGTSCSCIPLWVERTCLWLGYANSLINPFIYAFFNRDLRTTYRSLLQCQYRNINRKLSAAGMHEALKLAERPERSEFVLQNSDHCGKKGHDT
Sequence of 5-hydroxytryptamine receptor 6 (P31388 whole entry): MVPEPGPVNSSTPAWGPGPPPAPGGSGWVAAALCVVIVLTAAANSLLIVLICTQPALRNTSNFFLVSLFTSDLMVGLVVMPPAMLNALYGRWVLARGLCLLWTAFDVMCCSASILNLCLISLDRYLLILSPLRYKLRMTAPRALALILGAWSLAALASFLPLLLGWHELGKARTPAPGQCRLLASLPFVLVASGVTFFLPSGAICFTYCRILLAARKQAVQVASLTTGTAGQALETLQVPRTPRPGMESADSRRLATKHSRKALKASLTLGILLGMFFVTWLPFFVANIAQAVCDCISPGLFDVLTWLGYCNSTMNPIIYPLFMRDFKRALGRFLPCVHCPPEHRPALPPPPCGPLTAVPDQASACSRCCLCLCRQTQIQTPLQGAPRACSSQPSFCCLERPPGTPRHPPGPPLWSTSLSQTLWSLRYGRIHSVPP
Sequence of Sodium-dependent serotonin transporter (P31652 whole entry): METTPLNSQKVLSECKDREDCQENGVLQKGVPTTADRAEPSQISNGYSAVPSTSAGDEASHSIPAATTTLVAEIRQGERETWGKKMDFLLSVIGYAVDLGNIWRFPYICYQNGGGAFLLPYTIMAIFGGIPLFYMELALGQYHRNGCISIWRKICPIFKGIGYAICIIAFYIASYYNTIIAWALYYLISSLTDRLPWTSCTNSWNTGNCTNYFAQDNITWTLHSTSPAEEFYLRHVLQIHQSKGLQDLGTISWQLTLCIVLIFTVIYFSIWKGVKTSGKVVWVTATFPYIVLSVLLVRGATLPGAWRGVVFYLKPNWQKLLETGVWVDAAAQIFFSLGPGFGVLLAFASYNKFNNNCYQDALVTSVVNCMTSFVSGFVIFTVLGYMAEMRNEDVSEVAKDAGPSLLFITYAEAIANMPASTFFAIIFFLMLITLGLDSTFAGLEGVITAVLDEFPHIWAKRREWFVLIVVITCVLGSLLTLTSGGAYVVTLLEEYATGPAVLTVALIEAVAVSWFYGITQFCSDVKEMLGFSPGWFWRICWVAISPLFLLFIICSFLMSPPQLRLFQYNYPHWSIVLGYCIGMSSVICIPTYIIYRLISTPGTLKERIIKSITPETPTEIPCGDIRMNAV

| Ki [1] | Ki [2] | Ki [3] | Ki [4] | Ki [5] | Ki [6] | Ki [7] | Ki [8] | Structure (SMILES) |
| --- | --- | --- | --- | --- | --- | --- | --- | --- |
| 1000 nM | 88 nM | > 10000 nM | 500 nM | 500 nM | 0.26 nM | > 10000 nM |  | CCCN(C(C)C)[C@H]1COc2cccc(C(N)=O)c2C1 [(R)-3-[Isopropyl(propyl)amino]-3,4-dihydro-2H-1-benzopyran-5-carboxamide] |
| > 10000 nM | 240 nM |  | 500 nM | 500 nM | 4.5 nM | > 10000 nM | 1400 nM | CCCN(C(C)C)[C@H]1COc2cccc(C(=O)NC(C)C)c2C1 [(R)-N-Isopropyl-3-[isopropyl(propyl)amino]-3,4-dihydro-2H-1-benzopyran-5-carboxamide] |
